Test results as given in article PMC10095747, “Modulatory Effects of Atractylodin and β-Eudesmol on Human Cytochrome P450 Enzymes: Potential Drug-Drug Interactions” (Molecules, 2023).

Assays:
mCYP1A2 [1] = experiment: ex vivo mCYP1A2 activity in mouse liver microsomes (phenacetin O-deethylation); details: daily oral 100 mg/kg body weight
Excerpt: (§1) Phenacetin and nifedipine are substrates of CYP1A2 and CYP3A11, respectively. Both substrates are converted via the CYP enzyme to paracetamol and dehydronefedipine, respectively. The concentrations of paracetamol and dehydronefedipine were used to determine the activities of mCYP1A2 and mCYP3A11. The effects of atractylodin and β-eudesmol on mCYP1A2 and mCYP3A11 activities were, respectively, determined by measuring paracetamol (mCYP1A2-dependent metabolite) and dehydronifiedipine (mCYP3A11-dependent metabolite) concentrations.
(§2) Eight-week-old male ICR (Imprinting Control Region) mice weighing 35–40 g were used to investigate the modulatory effects of atractylodin and β-eudesmol on mCYP1A2 and mCYP3A11. The study protocol was approved by the Ethics Committee for Animal Research at Thammasat University (protocol number 016/2020). All animals were obtained from Nomura Siam International Co., Ltd. (Bangkok, Thailand). The animals were acclimatized for one week before the experiments. A total of 36 mice were allocated to three groups (i) control group (3 mice), (ii) atractylodin-treated group, and (iii) β-eudesmol-treated group. For atractylodin and β-eudesmol-treated groups, animals were fed with 100 mg/kg body weight of each compound for 1, 7, 14, and 21 (3 mice for each dose). Experiments were performed under the guidelines for the care and use of laboratory animals in a controlled environment of 12 h dark/light cycle, temperature 22 ± 2 °C, and relative humidity 30–70% at the Thammasat University Animal Center. Animals were observed daily for changes in signs and symptoms by a veterinarian. Mice were allowed access to the food pellets and water ad libitum.
(§3) Mouse liver samples were cut into small pieces, and the liver microsomes were prepared as described previously. The concentrations of proteins in the microsomes were determined using Pierce™ BCA Protein Assay Kit. mCYP1A2 and mCYP3A11 activities were evaluated based on phenacetin O-deethylation and nifedipine oxidation activities, respectively. The incubation mixture of 500 µL consisted of microsomes, substrate ([…]), and NADPH. […] The final organic solvent concentration in the incubation mixture was not higher than 1%. Each experiment was repeated three times (duplicated each). Determination of the concentrations of metabolites of mCYP1A2 (paracetamol) and mCYP3A11 (dehydronifedipine) in the reaction was performed using HPLC Agilent 1260 Infinity II with mobile gradient phase between methanol and distilled water at an initial ratio of 20:80 (v:v) and UV detection (240 nm). Calibration curves for both CYP450 activities were created over a concentration range of 1–50 µM. Oxidized nifedipine concentrations were determined using HPLC as follows: UV detection at 235 nm with an isocratic mobile phase consisting of methanol and distilled water (70:30, v:v). […] In each analytical batch, quality control (QC) samples were run in duplicate at low, medium, and high concentrations. Acceptance criteria were four out of six QC analyses falling within 100 ± 15% of the nominal values.

rCYP2C19 = rCYP2C19 (Homo sapiens, UniProt P33261); experiment: luminogenic P450-Glo CYP450 inhibition assay, rCYP2C19; details: median (range), three independent experiments
Sequence of rCYP2C19 (P33261 whole entry): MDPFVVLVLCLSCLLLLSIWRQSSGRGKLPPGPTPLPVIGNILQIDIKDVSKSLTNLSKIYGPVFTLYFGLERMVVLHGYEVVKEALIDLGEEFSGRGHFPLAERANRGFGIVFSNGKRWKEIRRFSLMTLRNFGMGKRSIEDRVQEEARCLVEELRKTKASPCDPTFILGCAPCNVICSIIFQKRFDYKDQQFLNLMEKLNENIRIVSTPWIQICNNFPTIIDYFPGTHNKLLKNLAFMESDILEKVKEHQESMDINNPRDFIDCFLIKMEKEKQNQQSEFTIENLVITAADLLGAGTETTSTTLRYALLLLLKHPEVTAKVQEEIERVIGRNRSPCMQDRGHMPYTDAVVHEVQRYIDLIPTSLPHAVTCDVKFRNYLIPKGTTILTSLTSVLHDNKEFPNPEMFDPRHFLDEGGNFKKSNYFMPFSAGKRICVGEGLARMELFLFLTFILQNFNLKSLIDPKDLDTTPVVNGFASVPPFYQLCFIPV
Excerpt: (§4) The luminescent cytochrome P450 assay was used to determine CYP450-mediated (CYP1A2, 2C9, 2C19, 2D6, and 3A4) metabolism of atractylodin and β-eudesmol. The assay consisted of each recombinant human CYP450 (rCYP450), control membranes lacking P450 activity, a luminogenic CYP450 substrate (luciferin-ME substrate for rCYP1A2, luciferin-H substrate for rCYP2C9, luciferin-H EGE substrate for rCYP2C19, luciferin-ME EGE substrate for rCYP2D6, and luciferin-IPA substrate for rCYP3A4), KPO4 buffer, luciferin free water, NADPH regeneration system, and a luciferin detection reagent. The rCYP450 enzymes were generated from a baculovirus-infected insect cell expression system. The concentrations of the recombinant CYPs used were 0.5 (rCYP1A2 and rCYP2C9), 0.25 (rCYP2C19 and rCYP2D6) or 0.2 (rCYP3A4) pmol (0.5μL) per reaction. […] A luciferin product was produced after adding 25 µL of NADPH Regeneration System (solution A, solution B, and luciferin-free water) and incubated at 37 °C for 10 (rCYP1A2 and rCYP3A4), 20 (rCYP2C19 and rCYP2C9) or 30 (rCYP2D6) minutes. The reaction was stopped and converted to a luminescent signal after adding Luciferin Detection Reagent (50 µL) and incubated at 25 °C for 20 min. The luminescence signals obtained were determined using a Varioskan® Flash microplate reader (Waltham, MA, USA). The magnitude of luminescence in all of the samples represented CYP450 activity. […] All stock solutions were diluted with luciferin-free water until the final concentration of organic solvent was less than 0.25% (v/v) of the total reaction. The concentration range of atractylodin and β-eudesmol used were 2.74–686 µM and 2.25–562 µM, respectively. […] The concentration that inhibited the activity of each rCYP450 by 50% (IC50) was calculated using Calcusyn software (Cambridge, UK). Data are reported as the median (range) of the three independent experiments.

rCYP2C9 = rCYP2C9 (Homo sapiens, UniProt P11712); experiment: luminogenic P450-Glo CYP450 inhibition assay, rCYP2C9; details: median (range), three independent experiments
Sequence of rCYP2C9 (P11712 whole entry): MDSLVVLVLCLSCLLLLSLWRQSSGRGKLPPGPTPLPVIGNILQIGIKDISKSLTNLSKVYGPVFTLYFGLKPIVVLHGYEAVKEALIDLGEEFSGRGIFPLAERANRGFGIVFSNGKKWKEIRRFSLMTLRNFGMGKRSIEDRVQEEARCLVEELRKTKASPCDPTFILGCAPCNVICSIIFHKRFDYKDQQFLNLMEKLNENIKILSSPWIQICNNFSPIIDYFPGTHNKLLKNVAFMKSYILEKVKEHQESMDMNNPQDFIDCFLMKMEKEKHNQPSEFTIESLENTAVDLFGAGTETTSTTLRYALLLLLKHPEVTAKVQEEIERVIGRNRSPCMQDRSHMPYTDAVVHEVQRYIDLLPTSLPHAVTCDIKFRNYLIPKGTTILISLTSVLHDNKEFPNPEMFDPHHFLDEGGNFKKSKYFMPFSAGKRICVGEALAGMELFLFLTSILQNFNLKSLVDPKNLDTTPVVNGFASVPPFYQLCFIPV
Excerpt: as §4

mCYP3A11 [2] = experiment: ex vivo mCYP3A11 protein expression in mouse liver microsomes (western blot); details: daily oral 100 mg/kg body weight
Excerpt: as §2, §3
(§5) The microsomal protein concentration for both mCYP1A2 and […] was 25 μg protein per lane. Proteins were denatured by combining equal volumes of liver microsomes with sample buffer (1:19 (v:v) of 2-mercaptoethanol and 2x Laemmle buffer) and heating at 100 °C for 5 min. Proteins were separated using 12% SDS-PAGE according to their size characteristics before being migrated to nitrocellulose blotting membranes.

mCYP3A11 [3] = experiment: ex vivo mCYP3A11 activity in mouse liver microsomes (nifedipine oxidation); details: daily oral 100 mg/kg body weight, 100 mg/kg
Excerpt: as §1, §2, §3

mCYP1A2 [4] = experiment: ex vivo mCYP1A2 protein expression in mouse liver microsomes (western blot); details: daily oral 100 mg/kg body weight
Excerpt: as §2, §3, §5

C/C=C/C#CC#C/C=C/c1ccco1 [Atractylodin]
Paracetamol concentration (mCYP1A2 activity) (mCYP1A2 [1]; 1 day, control 11.40, 100 mg/kg): significantly increased
Paracetamol concentration (mCYP1A2 activity) (mCYP1A2 [1]; 1 day, control 11.40, listed as Atactylodin, 100 mg/kg): 15.80 µM
Paracetamol concentration (mCYP1A2 activity) (mCYP1A2 [1]; 7 days, control 12.25): 12.00 µM
Paracetamol concentration (mCYP1A2 activity) (mCYP1A2 [1]; 14 days, control 12.80): 14.50 µM
Paracetamol concentration (mCYP1A2 activity) (mCYP1A2 [1]; 21 days, control 12.90, 100 mg/kg): significant decrease
Paracetamol concentration (mCYP1A2 activity) (mCYP1A2 [1]; 21 days, control 12.90, listed as Atactylodin, 100 mg/kg): 10.60 µM
Median IC50 (Range) rCYP2C19 (rCYP2C19): >125 µg/mL
IC50 (rCYP2C19; read-out: Median IC50 (Range) rCYP2C19): > 686 µM
Median IC50 (Range) rCYP2C9 (rCYP2C9): >125 µg/mL
IC50 (rCYP2C9; read-out: Median IC50 (Range) rCYP2C9): > 686 µM
Protein expression ratio of mCYP3A11 (mCYP3A11 [2]; 1 day, control 1.73): 1.82
Protein expression ratio of mCYP3A11 (mCYP3A11 [2]; 7 days, control 1.57, 100 mg/kg): significantly downregulated
Protein expression ratio of mCYP3A11 (mCYP3A11 [2]; 7 days, control 1.57, listed as Atactylodin, 100 mg/kg): 1.26
Protein expression ratio of mCYP3A11 (mCYP3A11 [2]; 14 days, control 2.31, 100 mg/kg): significantly downregulated
Protein expression ratio of mCYP3A11 (mCYP3A11 [2]; 14 days, control 2.31, listed as Atactylodin, 100 mg/kg): 1.67
Protein expression ratio of mCYP3A11 (mCYP3A11 [2]; 21 days, control 2.18, 100 mg/kg): significantly downregulated
Protein expression ratio of mCYP3A11 (mCYP3A11 [2]; 21 days, control 2.18, listed as Atactylodin, 100 mg/kg): 1.41
Dehydronifedipine concentration (mCYP3A11 activity) (mCYP3A11 [3]; 1 day, control 6.70): significant reduction
Dehydronifedipine concentration (mCYP3A11 activity) (mCYP3A11 [3]; 1 day, control 6.70, listed as Atactylodin): 5.35 µM
Dehydronifedipine concentration (mCYP3A11 activity) (mCYP3A11 [3]; 7 days, control 6.90): significant reduction
Dehydronifedipine concentration (mCYP3A11 activity) (mCYP3A11 [3]; 7 days, control 6.90, listed as Atactylodin): 5.20 µM
Dehydronifedipine concentration (mCYP3A11 activity) (mCYP3A11 [3]; 14 days, control 7.55): significant reduction
Dehydronifedipine concentration (mCYP3A11 activity) (mCYP3A11 [3]; 14 days, control 7.55, listed as Atactylodin): 6.10 µM
Dehydronifedipine concentration (mCYP3A11 activity) (mCYP3A11 [3]; 21 days, control 7.75): significant reduction
Dehydronifedipine concentration (mCYP3A11 activity) (mCYP3A11 [3]; 21 days, control 7.75, listed as Atactylodin): 3.75 µM
Protein expression ratio of mCYP1A2 (mCYP1A2 [4]; 1 day, control 1.5): 1.39
Protein expression ratio of mCYP1A2 (mCYP1A2 [4]; 7 days, control 1.88): 1.55
Protein expression ratio of mCYP1A2 (mCYP1A2 [4]; 14 days, control 2.42): 1.77
Protein expression ratio of mCYP1A2 (mCYP1A2 [4]; 21 days, control 2.20, 100 mg/kg): significantly downregulated
Protein expression ratio of mCYP1A2 (mCYP1A2 [4]; 21 days, control 2.20, listed as Atactylodin, 100 mg/kg): 1.33
